# Where two headings read alike, the source gives them in different places.
# Experiments:
# MAO-A [1] = molecular target: T1, MAO-A (Rattus norvegicus, UniProt P21396); assay: Kinetic parameters of suicide-type inhibition, MAO-A; format: biochemical, Sprague-Dawley rat; details: for K^1cat / K1(10^-3) / K^1cat: MAO-A; for K^1cat / K1(10^-3): inhibition efficacy; for K^1cat: velocity constant for formation of the covalent irreversible complex, ± SEM
# T1 construct: human and rat tissue to obtain the isolated forms of monoamine oxidase A and B; from tissue
# T1 sequence (P21396 1-526): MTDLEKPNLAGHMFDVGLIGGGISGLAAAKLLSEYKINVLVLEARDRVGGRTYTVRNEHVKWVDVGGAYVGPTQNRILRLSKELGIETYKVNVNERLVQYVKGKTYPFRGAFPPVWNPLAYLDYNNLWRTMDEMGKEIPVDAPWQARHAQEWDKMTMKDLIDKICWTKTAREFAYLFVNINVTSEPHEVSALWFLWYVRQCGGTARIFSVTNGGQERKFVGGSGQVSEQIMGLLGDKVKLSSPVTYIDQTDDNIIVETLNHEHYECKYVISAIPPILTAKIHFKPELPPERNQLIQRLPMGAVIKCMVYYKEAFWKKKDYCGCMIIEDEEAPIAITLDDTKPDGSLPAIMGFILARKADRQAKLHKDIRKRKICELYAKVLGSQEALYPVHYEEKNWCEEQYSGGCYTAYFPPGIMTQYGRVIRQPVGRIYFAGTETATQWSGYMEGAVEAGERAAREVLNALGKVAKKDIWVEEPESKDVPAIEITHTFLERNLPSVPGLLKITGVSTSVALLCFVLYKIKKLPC
# Description: Based on the apparent velocity constants of the first order (kapp) obtained for each inhibitor, calculations were made of the K1 and K^1c at (according to the method described by M. Avila et al. 1993, Biochem Pharmac 45, 2231-2237). K1 is the affinity constant of the first stage of the reaction and K1 MAO-A / K1 MAO-B the expression of the selectivity.
# (§1) K^1cat is the velocity constant for the formation of the covalent irreversible complex during the second stage of the process. To compare the values of these constants towards the two forms of MAO, we express the inhibition efficacy as the ratio K^1cat/K1. The value of these constants (see Tables 2 and 3), is the result of three different experiments, with their corresponding SEM.
# MAO-A [2] = molecular target: T1, MAO-A; assay: biochemical; format: biochemical, Sprague-Dawley rat
# Method: (§2) The mitochondrial portion of Sprague-Dawley rat was used to determine the MAO-A and MAO-B activity.
# (§3) Determinations were made of the comparative MAO-A and MAO-B activity inhibition curves of the various compounds under study at time 0 and 30 min. by measuring the remaining activity to 5-HT and PEA as substrates.
# MAO-B [3] = molecular target: T2, MAO-B (Rattus norvegicus, UniProt P19643); assay: MAO-B inhibition, mitochondrial portion of rat (IC50, time dependence, irreversibility), substrate PEA; format: biochemical, Sprague-Dawley rat; details: MAO-B (lines B..), substrate PEA, rat mitochondria
# T2 construct: from tissue; host or cells: Sprague-Dawley rat liver, mitochondrial fraction
# T2 sequence (P19643 1-520): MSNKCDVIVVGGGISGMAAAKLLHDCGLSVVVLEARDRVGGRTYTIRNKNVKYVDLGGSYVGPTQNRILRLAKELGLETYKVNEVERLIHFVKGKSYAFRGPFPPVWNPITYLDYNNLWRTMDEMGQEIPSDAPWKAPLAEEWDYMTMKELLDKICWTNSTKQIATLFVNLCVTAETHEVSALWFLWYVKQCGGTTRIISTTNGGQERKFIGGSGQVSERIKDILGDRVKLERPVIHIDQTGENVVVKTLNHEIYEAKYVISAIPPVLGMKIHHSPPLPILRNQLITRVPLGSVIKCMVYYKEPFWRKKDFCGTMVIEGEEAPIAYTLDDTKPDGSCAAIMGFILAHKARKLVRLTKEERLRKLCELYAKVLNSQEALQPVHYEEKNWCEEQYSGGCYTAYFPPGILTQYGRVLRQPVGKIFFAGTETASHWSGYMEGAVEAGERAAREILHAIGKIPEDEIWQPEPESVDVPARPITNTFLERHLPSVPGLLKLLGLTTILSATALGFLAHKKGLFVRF
# Method: as §2, §3
# MAO-B [4] = molecular target: T2, MAO-B; assay: Kinetic parameters of suicide-type inhibition, MAO-B (selectivity K1 MAO-A / K1 MAO-B); format: biochemical, Sprague-Dawley rat; details: selectivity for MAO-B
# Description: K1 is the affinity constant of the first stage of the reaction and K1 MAO-A / K1 MAO-B the expression of the selectivity.
# as §1
# dopamine carrier = molecular target: T3, dopamine carrier (Homo sapiens, UniProt Q01959); assay: Dopamine carrier inhibition in purified synaptosomes of human caudate; format: biochemical
# T3 construct: This assay was carried out in purified synaptosomes of human caudate; from tissue; host or cells: post-mortem human caudate, purified synaptosomes
# Method: This assay was carried out in purified synaptosomes of human caudate obtained using the same method as described by Rodríguez et al. 1987 Biochem Pharmac 36, 974-976.
# The studies were carried out with the same inhibitors used in the rat tissue. The dopamine (DA) concentration was 0.1 µM, a value chosen from the kinetic constants obtained.
# MAO-A [5] = molecular target: T4, MAO-A (Mus musculus, UniProt Q64133); assay: Ex vivo inhibition of brain MAO-A after i.p. administration; format: in vivo, C57/BL mice; details: mouse brain homogenate 2 hours after i.p., l-deprenyl 10 mg/Kg, tested compound 4 mg/Kg
# T4 construct: the brains homogenised in potassium phosphate buffer 50 mM, pH 7.2; from tissue; host or cells: C57/BL mouse brain homogenate
# T4 sequence (Q64133 1-526): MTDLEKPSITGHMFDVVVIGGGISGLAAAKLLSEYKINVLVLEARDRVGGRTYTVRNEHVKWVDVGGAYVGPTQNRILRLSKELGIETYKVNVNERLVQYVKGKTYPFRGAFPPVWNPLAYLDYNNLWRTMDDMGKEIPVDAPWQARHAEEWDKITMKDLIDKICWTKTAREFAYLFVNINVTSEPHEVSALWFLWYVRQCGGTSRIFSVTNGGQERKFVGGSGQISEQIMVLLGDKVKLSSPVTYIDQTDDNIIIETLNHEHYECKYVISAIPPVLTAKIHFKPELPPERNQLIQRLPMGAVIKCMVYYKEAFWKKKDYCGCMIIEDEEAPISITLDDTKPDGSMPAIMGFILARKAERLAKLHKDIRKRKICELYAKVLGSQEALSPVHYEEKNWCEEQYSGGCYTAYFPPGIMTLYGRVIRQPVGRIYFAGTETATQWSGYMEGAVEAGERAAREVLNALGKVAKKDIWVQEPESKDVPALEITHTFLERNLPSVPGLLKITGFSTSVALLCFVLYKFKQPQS
# Method: The pharmacological assays were carried out on C57/BL mice. These animals are sensitive to the induction of the symptomatology of Parkinson's disease through the action of MPTP.
# The animals were sacrificed by decapitation after 2 hours and the brains homogenised in potassium phosphate buffer 50 mM, pH 7.2. Determinations were made of the MAO-A and MAO-B activity in each case using radiometric methods.
# [6] = MAO-A (A..), affinity constant of the first stage, three experiments ± SEM, read-out: K1
# [7] = IC50 30 min., MAO-A (lines A..), substrate 5-HT, 30 min incubation, rat mitochondria
# [8] = MAO-A (lines A..), substrate 5-HT, 0 min incubation, rat mitochondria, read-out: IC50 0 min
# [9] = IC50 30 min., 30 min incubation
# [10] = 0 min incubation, read-out: IC50 0 min
# [11] = read-out: IC50 30 min., MAO-A (lines A..), substrate 5-HT, 30 min incubation, rat mitochondria
# T3 sequence (Q01959 whole entry): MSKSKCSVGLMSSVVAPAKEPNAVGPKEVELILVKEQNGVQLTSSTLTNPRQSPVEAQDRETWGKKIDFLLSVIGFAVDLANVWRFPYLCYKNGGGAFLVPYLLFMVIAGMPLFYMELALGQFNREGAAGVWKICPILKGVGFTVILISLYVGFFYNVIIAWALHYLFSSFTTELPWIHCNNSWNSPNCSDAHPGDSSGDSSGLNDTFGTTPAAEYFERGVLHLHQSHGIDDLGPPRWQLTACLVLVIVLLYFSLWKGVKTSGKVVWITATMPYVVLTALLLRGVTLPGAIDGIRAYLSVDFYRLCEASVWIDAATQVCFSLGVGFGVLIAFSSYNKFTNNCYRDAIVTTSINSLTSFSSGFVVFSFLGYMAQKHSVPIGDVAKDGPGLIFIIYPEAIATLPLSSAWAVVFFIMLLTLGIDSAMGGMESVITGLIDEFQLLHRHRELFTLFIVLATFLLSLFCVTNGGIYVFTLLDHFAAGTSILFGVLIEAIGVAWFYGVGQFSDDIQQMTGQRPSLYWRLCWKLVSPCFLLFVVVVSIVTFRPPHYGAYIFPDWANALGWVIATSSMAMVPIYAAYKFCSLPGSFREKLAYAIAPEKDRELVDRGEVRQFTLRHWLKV
SMILES,Ki (MAO-A [1]; [6]) [nM],K^1cat / K1(10^-3) (MAO-A [1]),K^1cat (MAO-A [1]) [min⁻¹],IC50 (MAO-A [2]; [7]) [nM],IC50 (MAO-A [2]; [8]) [nM],IC50 (MAO-B [3]; [9]) [nM],IC50 (MAO-B [3]; [10]) [nM],K1 MAO-A/K1 MAO-B (MAO-B [4]),Ki (MAO-A [1]) [nM],IC50 (MAO-A [2]) [nM],IC50 (MAO-A [2]; [11]) [nM],IC50 (dopamine carrier) [nM],"remaining activity at 4 mg/kg (MAO-A [5]; ip, control = 100%) [%]",MAO-A ACTIVITY (MAO-A [5]; control 485)
C=C=CCNCc1cc2cc(OCc3ccccc3)ccc2n1C [FA-97],18.8,6.0 10^-3,0.12 ± 0.002,25,199,12,790,–,–,–,–,–,–,–
CC#CCN(CC#CC)Cc1cc2cc(OCc3ccccc3)ccc2[nH]1 [FA-77],6520,0.014 10^-3,0.09 ± 0.002,5000,39000,10,25000,41.5,–,–,–,–,–,–
C=C=CCN(CC=C=C)Cc1cc2cc(OCc3ccccc3)ccc2[nH]1 [FA-78],14100,0.014 10^-3,0.2 ± 0.04,6300,120000,190,3100,913.6,–,–,–,–,–,–
C#CCN(C)Cc1cc2cc(OCc3ccccc3)ccc2n1C [FA-65],–,–,–,–,–,–,–,–,18,1500,100,–,–,–
C=C=CCN(C)Cc1cc2cc(OCc3ccccc3)ccc2n1C [FA-67],–,–,–,–,–,–,–,–,26.5,2500,190,–,–,–
"C#CCN(C)[C@H](C)Cc1ccccc1 [deprenyl, reference compound]",–,–,0.049 ± 0.01,–,–,–,–,–,–,–,–,100,52.5,255
C#CCN(C)Cc1cc2cc(OCc3ccccc3)ccc2[nH]1 [FA-87],–,–,–,–,–,–,–,–,54.5,630,0.79,–,–,–
C=C=CCNCc1cc2cc(OCc3ccccc3)ccc2[nH]1 [FA-75],347,0.47 10^-3,0.16 ± 0.02,250,3980,25,398,63.0,–,–,–,–,–,–
C#CCN(CC#C)Cc1cc2cc(OCc3ccccc3)ccc2n1C [FA-98],19.8,5.6 10^-3,0.11 ± 0.01,31000,–,2500,19400,873.5,–,–,–,–,–,–
CC#CCNCc1cc2cc(OCc3ccccc3)ccc2[nH]1 [FA-74],5250,0.04 10^-3,0.21 ± 0.1,10000,63000,250,1580,276.4,–,–,–,–,–,–
CC#CCN(C)Cc1cc2cc(OCc3ccccc3)ccc2n1C [FA-66],–,–,–,–,–,–,–,–,5.4,1250,150,–,–,–
CC#CCN(C)Cc1cc2cc(OCc3ccccc3)ccc2[nH]1 [FA-88],–,–,0.04 ± 0.001,–,–,–,–,–,13.9,1580,150,–,–,–
